In patent publication US12568969B2, “Pyridine compounds for controlling invertebrate pests” (FMC Corporation, priority 2020, dated 2026):

How the values were obtained:
Type in all cases: in vivo
[1] = system: diamondback moth (Plutella xylostella (L.)); assay: Test A: control of diamondback moth on mustard plant, spray; settings: sprayed at 250 ppm; assessed after 6 days
Procedure: (§1) Test compounds were formulated using a solution containing 10% acetone, […] and 300 ppm Activator 909 non-ionic surfactant (Loveland Products, Loveland, Colorado, USA). The formulated compounds were applied in 1 mL of liquid through an atomizer nozzle positioned 1.27 cm (0.5 inches) above the top of each test unit. Test compounds were sprayed at the rates indicated, and each test was replicated three times.
For evaluating control of diamondback moth (Plutella xylostella (L.)) the test unit consisted of a small open container with a 12-14-day-old mustard plant inside. This was pre-infested with ˜50 neonate larvae that were dispensed into the test unit via corn cob grits using an inoculator. The larvae moved onto the test plant after being dispensed into the test unit.
Test compounds were formulated and sprayed at 250 ppm. After spraying of the formulated test compound, each test unit was allowed to dry for 1 hour and then a black, screened cap was placed on top. The test units were held for 6 days in a growth chamber at 25° C. and 70% relative humidity. Plant feeding damage was then visually assessed based on foliage consumed, and larvae were assessed for mortality.

[2] = system: green peach aphid (Myzus persicae (Sulzer)); assay: Test D: control of green peach aphid on radish plant, spray; settings: Myzus persicae, 144 h, 6 days; for mortality at 250 ppm: sprayed at 250 ppm; for mortality at 50 ppm: sprayed at 50 ppm
Procedure: as §1
For evaluating control of green peach aphid (Myzus persicae (Sulzer)) through contact and/or systemic means, the test unit consisted of a small open container with a 12-15-day-old radish plant inside. This was pre-infested by placing on a leaf of the test plant 30-40 aphids on a piece of leaf excised from a culture plant (cut-leaf method). The aphids moved onto the test plant as the leaf piece desiccated. After pre-infestation, the soil of the test unit was covered with a layer of sand.
[…] After spraying of the formulated test compound, each test unit was allowed to dry for 1 hour and then a black, screened cap was placed on top. The test units were held for 6 days in a growth chamber at 19-21° C. and 50-70% relative humidity. Each test unit was then visually assessed for insect mortality.

[3] = system: cotton melon aphid (Aphis gossypii (Glover)); assay: whole plant or invertebrate; settings: Aphis gossypii, 144 h, 6 days; for mortality at 50 ppm: sprayed at 50 ppm; for mortality at 250 ppm: sprayed at 250 ppm
Procedure: as §1
[…] This was pre-infested with 30-40 insects on a piece of leaf according to the cut-leaf method, and the soil of the test unit was covered with a layer of sand.
Test compounds were formulated and sprayed at 250 and/or 50 ppm. After spraying, the test units were maintained in a growth chamber for 6 days at 19° C. and 70% relative humidity. Each test unit was then visually assessed for insect mortality.

[4] = system: sweetpotato whitefly (Bemisia tabaci (Gennadius)); assay: Test F: control of sweetpotato whitefly on cotton plant, spray; settings: 312 h, 13 days; for mortality at 250 ppm: sprayed at 250 ppm
Procedure: as §1
For evaluating control of the sweetpotato whitefly (Bemisia tabaci (Gennadius)) through contact and/or systemic means, the test unit consisted of a small open container with a 12-14-day-old cotton plant inside. Prior to the spray application, both cotyledons were removed from the plant, leaving one true leaf for the assay. Adult whiteflies were allowed to lay eggs on the plant and then were removed from the test unit. Cotton plants infested with at least 15 eggs were submitted to the test for spraying.
Test compounds were formulated and sprayed at 250 and/or 50 ppm. After spraying, the test units were allowed to dry for 1 hour. The cylinders were then removed, and the units were taken to a growth chamber and held for 13 days at 28° C. and 50-70% relative humidity. Each test unit was then visually assessed for insect mortality.

[5] = system: corn planthopper (Peregrinus maidis (Ashmead)); assay: whole plant or invertebrate; settings: Peregrinus maidis, 144 h, 6 days; for mortality at 50 ppm: sprayed at 50 ppm; for mortality at 250 ppm: sprayed at 250 ppm; for mortality at 10 ppm: sprayed at 10 ppm
Procedure: as §1
For evaluating control of corn planthopper (Peregrinus maidis (Ashmead)) through contact and/or systemic means, the test unit consisted of a small open container with a 3-4-day-old corn (maize) plant inside. White sand was added to the top of the soil prior to application of the test compound.
Test compounds were formulated and sprayed at 250 and/or 50 ppm and/or 10 ppm. After spraying of the formulated test compound, the test units were allowed to dry for 1 h before they were post-infested with ˜15-20 nymphs (18-to-21-day-old). A black, screened cap was placed on the top of each test unit, and the test units were held for 6 days in a growth chamber at 22-24° C. and 50-70% relative humidity. Each test unit was then visually assessed for insect mortality.

## Cc1noc(-c2cncc(Cl)c2C(F)c2ccc([S+]([O-])C(F)(F)F)cc2)n1 (mixture of isomers) [Compound 104]
[1]
  control efficacy (40% or less feeding damage and/or 100% mortality): very good to excellent levels of control efficacy

## Cc1noc(-c2cncc(F)c2C(F)c2ccc(OC(F)(F)F)cc2)n1 (racemic) [Compound 39]
[1]
  control efficacy (40% or less feeding damage and/or 100% mortality): very good to excellent levels of control efficacy

## FC(c1ccc(OC(F)(F)F)cc1)c1c(C2CC2)cncc1-n1nccn1 (racemic) [Compound 53]
[1]
  control efficacy (40% or less feeding damage and/or 100% mortality): very good to excellent levels of control efficacy

## Cc1noc(-c2cncc(Cl)c2C(F)c2ccc(SC(F)(F)F)cc2)n1 (racemic) [Compound 103]
[1]
  control efficacy (40% or less feeding damage and/or 100% mortality): very good to excellent levels of control efficacy

## FC(c1ccc(OC(F)(F)F)cc1)c1ccncc1-n1cncn1 (stereo not drawn) [Compound 12]
[2]
  mortality at 250 ppm: ≥ 80%
[3]
  mortality at 50 ppm: ≥ 80%
  mortality at 250 ppm: ≥ 80%
[4]
  mortality at 250 ppm: ≥ 70%
[5]
  mortality at 50 ppm: ≥ 80%
  mortality at 250 ppm: ≥ 80%

## FC(c1ccc(OC(F)(F)F)cc1)c1c(Cl)cncc1-n1cncn1 (stereo not drawn) [Compound 15]
[2]
  mortality at 50 ppm: ≥ 80%
  mortality at 250 ppm: ≥ 80%
[4]
  mortality at 250 ppm: ≥ 70%
[5]
  mortality at 50 ppm: ≥ 80%
  mortality at 250 ppm: ≥ 80%

## FC(c1ccc(OC(F)(F)F)cc1)c1c(Br)cncc1-n1nccn1 (stereo not drawn) [Compound 17]
[2]
  mortality at 50 ppm: ≥ 80%
  mortality at 250 ppm: ≥ 80%
[3]
  mortality at 50 ppm: ≥ 80%
  mortality at 250 ppm: ≥ 80%
[4]
  mortality at 250 ppm: ≥ 70%
[5]
  mortality at 50 ppm: ≥ 80%
  mortality at 250 ppm: ≥ 80%

## Fc1cncc(-c2cccs2)c1C(F)c1ccc(OC(F)(F)F)cc1 (stereo not drawn) [Compound 45]
[1]
  control efficacy (40% or less feeding damage and/or 100% mortality): very good to excellent levels of control efficacy
[3]
  mortality at 50 ppm: ≥ 80%
  mortality at 250 ppm: ≥ 80%
[5]
  mortality at 10 ppm: ≥ 80%
  mortality at 50 ppm: ≥ 80%

## FC(c1ccc(OC(F)(F)F)cc1)c1c(Cl)cncc1-c1ncco1 (stereo not drawn) [Compound 51]
[1]
  control efficacy (40% or less feeding damage and/or 100% mortality): very good to excellent levels of control efficacy
[3]
  mortality at 50 ppm: ≥ 80%
  mortality at 250 ppm: ≥ 80%
[5]
  mortality at 10 ppm: ≥ 80%
  mortality at 50 ppm: ≥ 80%

## CCn1nccc1-c1cncc(F)c1C(F)c1ccc(OC(F)(F)F)cc1 (stereo not drawn) [Compound 55]
[1]
  control efficacy (40% or less feeding damage and/or 100% mortality): very good to excellent levels of control efficacy
[5]
  mortality at 50 ppm: ≥ 80%

## Cn1ccc(-c2cncc(F)c2C(F)c2ccc(OC(F)(F)F)cc2)n1 (stereo not drawn) [Compound 59]
[1]
  control efficacy (40% or less feeding damage and/or 100% mortality): very good to excellent levels of control efficacy
[3]
  mortality at 250 ppm: ≥ 80%

## FC(c1ccc(OC(F)(F)F)cc1)c1c(Cl)cncc1-c1cnco1 (stereo not drawn) [Compound 60]
[1]
  control efficacy (40% or less feeding damage and/or 100% mortality): very good to excellent levels of control efficacy
[3]
  mortality at 250 ppm: ≥ 80%

## [O-][S+](c1ccc(C(F)c2c(F)cncc2-n2nccn2)cc1)C(F)(F)F (stereo not drawn) [Compound 67, 3-fluoro-4-[fluoro-[4-(trifluoromethylsulfinyl)phenyl]methyl]-5-(triazol-2-yl)pyridine]
[2]
  mortality at 50 ppm: ≥ 80%
  mortality at 250 ppm: ≥ 80%
[3]
  mortality at 50 ppm: ≥ 80%
  mortality at 250 ppm: ≥ 80%
[4]
  mortality at 250 ppm: ≥ 70%
[5]
  mortality at 50 ppm: ≥ 80%
  mortality at 250 ppm: ≥ 80%

## COC(c1ccc(SC(F)(F)F)cc1)c1c(F)cncc1-n1cncn1 (stereo not drawn) [Compound 71]
[2]
  mortality at 50 ppm: ≥ 80%
  mortality at 250 ppm: ≥ 80%
[3]
  mortality at 50 ppm: ≥ 80%
  mortality at 250 ppm: ≥ 80%
[4]; sprayed at 50 ppm
  mortality at 50 ppm: ≥ 70%
[4]
  mortality at 250 ppm: ≥ 70%
